Several values for one entry are separate records, joined by “and”; a condition that tells them apart may be missing. Equal entries are not always repeated.
Legend:
[1] = tested on: Klebsiella pneumoniae K66-45; assay: MIC determination, fixed ratio of sBLI to antibiotic (Examples 2-4); assay type: cell-based; settings: Example 2; with MEM and AVI (fixed ratio); NDM-1; caMHB, 29.4 μM Zn2+
Description: (§1) Antimicrobial susceptibility testing (AST) by broth microdilution (MIC determination) was performed according to The European Committee on Antimicrobial Susceptibility Testing (EUCAST) guidelines (see Reading guide for broth microdilution Version 5.0, 2024: https://www.eucast.org).
(§2) Sterile clear round bottom polystyrene (non-treated) 96-well microplates (Corning 3788) were used for making serial two-fold dilutions of the antibiotic and the sBLI in cation-adjusted Mueller Hinton II broth (caMHB; Thermo Scientific, T3462, containing 29.4 μM Zn^2+), across the columns of the microtiter plate (256-0.06 μg/mL; columns 1-12). The checkerboard plates were all made by keeping the sBLI at a fixed ratio relative to antibiotic (absolute concentrations of each, in μg/mL) to all wells containing sample in each plate. Additionally, a set of samples was included in each test plate, where the zinc chelator was added, at various fixed concentrations, of 16 μg/mL, 8 μg/mL and/or 4 μg/mL (as specified in each Example). All sample wells contained growth medium (caMHB), and inoculated bacteria at a final inoculum between 3-7×10^5 CFU/mL. […]

bacterial strain = assay: MIC checkerboard assays, Examples 2 to 30 overall; assay type: cell-based
Description: Thus, in most of the experiments, a Fractional Inhibitory Concentration Index (FICI) could not be calculated, and the conclusion of synergy was made through visual reading of the bacterial growth in the wells in the combination experiment.
as §1, §2

SMILES: CN(C[C@H](O)[C@@H](O)[C@H](O)[C@H](O)CO)C(=O)c1ccc(CN(Cc2ccccn2)Cc2ccccn2)nc1 [zinc chelator]
- Synergy with the zinc chelator observed at concentration [1]: 16 µg/mL and 8 µg/mL
- intrinsic antibiotic effect (bacterial strain): neither the zinc chelator nor the sBLI have intrinsic antibiotic effect
